Measurements as given in patent publication US11472838B2, “Inhibitors of blood coagulation factor XIII” (Zedira GmbH, priority 2018, dated 2022).
Read-outs that look alike come from different tables or passages of the source. *1 amine or outer side, *2 acyl side, *3 side chain or, on linkers, in order; H or OH if unused. Where a SMILES comes first, the peptide text is derived from it. [ ]: non-standard residue; d: D form. The star is where a group is joined. ξ: configuration not given here. Benzoyl(3-COOH,5-NO2) = O=C(O)c1cc(C(=O)*)cc([N+](=O)[O-])c1; Nle(5E-ene,6-CO2Et) = CCOC(=O)/C=C/CC[C@H](N)C(=O)O; Isonicotinoyl(3-COOH) = O=C(O)c1cnccc1C(=O)*; X1 = COC(=O)/C=C/CC[C@H](N[*:1])C(=O)[*:2]; X8 = NC(=O)/C=C/CC[C@H](N[*:1])C(=O)[*:2]; Pro(4-methylene) = C=C1CN[C@H](C(=O)O)C1; Morpholine(3S-CO) = O=C(O)[C@@H]1COCCN1; Pro(4-oxo) = O=C1CN[C@H](C(=O)O)C1; Ala(cPr) = N[C@@H](CC1CC1)C(=O)O; Ile(3ξ) = CCC(C)[C@H](N)C(=O)O; Thr(3ξ) = CC(O)[C@H](N)C(=O)O; Chg = N[C@H](C(=O)O)C1CCCCC1; Tle = CC(C)(C)[C@H](N)C(=O)O; X4 = O=C(O)c1cncc(C(=O)*)c1; αMeP = C[C@@]1(C(=O)O)CCCN1; X6 = Cc1cccc(C)c1OCC(C)N*; Nle = CCCC[C@H](N)C(=O)O; NHIsopentyl = CC(C)CCN*; ξV = CC(C)C(N)C(=O)O; Alloc = C=CCOC(=O)*

How the values were obtained:
[1] = biological target: TG2 (Homo sapiens (Human), UniProt P21980); assay: Inhibitory activity against TG2 (isopeptidase assay), Tables 3 and 4; type: biochemical; conditions: for Selectivity: TG2 versus FXIII
[2] = biological target: FXIII (Homo sapiens (Human), UniProt P00488); assay: Inhibitory activity against FXIII (isopeptidase assay), Tables 3 and 4; type: biochemical;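 also: FXIIIa activity read with a peptide substrate derived from the α2-antiplasmin N-terminal dodecapeptide, FXIII activated beforehand at room temperature, inhibitor-free wells with DMSO buffer as control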
[3] = tested on: whole human blood; assay: Thromboelastometry (ROTEM) in whole human blood with t-PA; type: cell-based
Method: Clotting time (CT), clot formation time (CFT), maximum clot firmness (MCF) and lysis index at 60 min (LI60) were obtained using fresh whole blood in the ROTEM® delta device according to the manufacturer's instructions.

[4] = in vitro; conditions: for half-life / recovery in plasma determined by HPLC: plasma; for recovery in plasma determined by HPLC: 37° C., over a period of 2 hours
Method: Further, the stability of compounds in plasma was determined as prerequisite for drug-likeness. Briefly, after spiking the chemical entities, the plasma was incubated at 37° C. At certain time points (e.g. at 15 and 120 minutes), 3 vol. cold MeOH were added to extract the compounds. After centrifugation, the supernatant was analyzed by HPLC. The half life was calculated based on the respective calibration curve.

[5] = isopeptidase assay, Table 3, read-out: IC50 [nM] TG2
[6] = isopeptidase assay, Table 3, read-out: IC50 [nM] FXIII

Chain of TG2 (P21980 whole entry): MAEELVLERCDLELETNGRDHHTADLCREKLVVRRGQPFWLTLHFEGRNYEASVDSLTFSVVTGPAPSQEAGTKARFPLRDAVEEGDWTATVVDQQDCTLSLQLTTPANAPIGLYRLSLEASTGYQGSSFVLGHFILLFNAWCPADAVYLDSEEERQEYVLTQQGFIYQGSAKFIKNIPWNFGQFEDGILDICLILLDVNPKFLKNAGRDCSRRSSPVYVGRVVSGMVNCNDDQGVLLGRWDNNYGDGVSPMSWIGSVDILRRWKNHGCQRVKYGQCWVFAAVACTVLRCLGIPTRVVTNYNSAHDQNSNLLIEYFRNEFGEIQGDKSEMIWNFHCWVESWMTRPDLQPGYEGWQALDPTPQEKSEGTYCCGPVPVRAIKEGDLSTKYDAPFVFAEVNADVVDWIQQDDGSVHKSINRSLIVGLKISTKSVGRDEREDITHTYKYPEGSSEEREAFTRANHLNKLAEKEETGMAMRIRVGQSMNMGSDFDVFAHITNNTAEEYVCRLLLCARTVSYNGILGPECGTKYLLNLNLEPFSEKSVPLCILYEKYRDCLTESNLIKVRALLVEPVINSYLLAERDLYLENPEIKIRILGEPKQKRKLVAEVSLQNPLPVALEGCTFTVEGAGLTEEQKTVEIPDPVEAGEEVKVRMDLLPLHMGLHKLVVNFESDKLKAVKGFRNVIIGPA
Chain of FXIII (P00488 39-732): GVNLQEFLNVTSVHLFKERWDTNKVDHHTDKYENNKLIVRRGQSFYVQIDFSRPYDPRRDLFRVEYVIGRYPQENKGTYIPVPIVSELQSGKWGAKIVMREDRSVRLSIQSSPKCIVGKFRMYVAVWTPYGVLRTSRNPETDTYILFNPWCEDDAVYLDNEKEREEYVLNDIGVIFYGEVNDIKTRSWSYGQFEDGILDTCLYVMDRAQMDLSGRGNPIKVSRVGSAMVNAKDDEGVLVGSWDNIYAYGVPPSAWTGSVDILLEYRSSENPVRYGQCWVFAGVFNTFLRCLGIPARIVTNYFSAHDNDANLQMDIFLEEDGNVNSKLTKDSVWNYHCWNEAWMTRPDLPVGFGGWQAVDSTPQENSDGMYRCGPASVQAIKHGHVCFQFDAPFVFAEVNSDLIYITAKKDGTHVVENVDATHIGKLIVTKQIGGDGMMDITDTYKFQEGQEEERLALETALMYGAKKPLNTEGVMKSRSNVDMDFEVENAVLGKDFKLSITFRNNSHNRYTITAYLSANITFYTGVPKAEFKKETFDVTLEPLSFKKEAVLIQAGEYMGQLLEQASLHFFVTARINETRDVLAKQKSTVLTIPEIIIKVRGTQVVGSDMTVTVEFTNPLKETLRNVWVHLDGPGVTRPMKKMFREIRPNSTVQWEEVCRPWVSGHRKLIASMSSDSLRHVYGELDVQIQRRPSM

Row | Structure (SMILES) | Selectivity ([1]; Table 4) | IC50 ([1]; Table 4, read-out: TG2 IC50) | IC50 ([2]; Table 4, read-out: FXIII IC50) | recovery at 2 h [4] | half-life [4] | increase in clot lysis at 60 minutes compared to control (LI60c) [3] | Selectivity ([1]; isopeptidase assay, Table 3) | IC50 [1, 5] | IC50 [2, 6] | recovery in plasma determined by HPLC [4]
1 | COC(=O)/C=C/CC[C@H](NC(=O)c1ccncc1C(=O)O)C(=O)N[C@H](C(=O)N1CC(=O)C[C@H]1C(=O)N[C@H](C(=O)N[C@H](C(=O)O)C1CCCCC1)C1CCCCC1)C(C)(C)C [34a/b] ({Isonicotinoyl(3-COOH)}-[X1][Tle][Pro(4-oxo)][Chg][Chg]-OH) | – | – | – | – | – | – | 2.7 | 356 nM | 123 nM | > 75%
2 | CCOC(=O)/C=C/CC[C@H](NC(=O)c1ccncc1C(=O)O)C(=O)N[C@H](C(=O)N1CC(=O)C[C@H]1C(=O)N[C@H](C(=O)N[C@H](C(N)=O)C1CCCCC1)C1CCCCC1)C(C)(C)C [8a/b] ({Isonicotinoyl(3-COOH)}-[Nle(5E-ene,6-CO2Et)][Tle][Pro(4-oxo)][Chg][Chg]-NH2) | – | – | – | – | – | – | 19.9 | 417 nM | 21 nM | > 75%
3 | COC(=O)/C=C/CC[C@H](NC(=O)c1ccncc1C(=O)O)C(=O)N[C@H](C(=O)N1CC(=O)C[C@H]1C(=O)N[C@H](C(=O)N[C@H](C(=O)OC)C1CCCCC1)C1CCCCC1)C(C)(C)C [35a/b] ({Isonicotinoyl(3-COOH)}-[X1][Tle][Pro(4-oxo)][Chg][Chg]-OMe) | – | – | – | – | – | – | 2.3 | 198 nM | 86 nM | > 75%
4 | COC(=O)/C=C/CC[C@H](NC(=O)c1cncc(C(=O)O)c1)C(=O)N[C@H](C(=O)N1CCC[C@H]1C(=O)N[C@H](C(=O)N[C@H](C(N)=O)C1CCCCC1)C1CCCCC1)C(C)(C)C [Compound 27] (X4-[X1][Tle]P[Chg][Chg]-NH2) | – | – | – | > 75% | – | – | 2.4 | 64 nM | 27 nM | –
5 | CC(C)(C)[C@H](NC(=O)[C@H](CC/C=C/C(N)=O)NC(=O)c1ccncc1C(=O)O)C(=O)N1CC(=O)C[C@H]1C(=O)N[C@H](C(=O)N[C@H](C(N)=O)C1CCCCC1)C1CCCCC1 [15a/b] ({Isonicotinoyl(3-COOH)}-[X8][Tle][Pro(4-oxo)][Chg][Chg]-NH2) | – | – | – | – | – | – | 7.0 | 483 nM | 69 nM | > 75%
6 | C=C1C[C@@H](C(=O)N[C@@H](CC(C)C)C(=O)N2CCC[C@H]2C(=O)O)N(C(=O)[C@@H](NC(=O)[C@H](CC/C=C/C(=O)OC)NC(=O)c2cc(C(=O)O)cc([N+](=O)[O-])c2)C(C)(C)C)C1 [Compound 43] ({Benzoyl(3-COOH,5-NO2)}-[X1][Tle][Pro(4-methylene)]LP-OH) | 5.42 | 856 nM | 158 nM | > 75% | – | 14% | – | – | – | –
7 | COC(=O)/C=C/CC[C@H](NC(=O)c1cc(C(=O)O)cc([N+](=O)[O-])c1)C(=O)N[C@H](C(=O)N1CC(=O)C[C@H]1C(=O)N[C@@H](CC(C)C)C(=O)N1CCC[C@@]1(C)C(=O)NC(C)COc1c(C)cccc1C)C(C)(C)C (stereo partly drawn) [Compound 30] ({Benzoyl(3-COOH,5-NO2)}-[X1][Tle][Pro(4-oxo)]L[αMeP]-X6) | – | – | – | > 75% | – | – | 1.1 | – | 15 nM | –
8 | COC(=O)/C=C/CC[C@H](NC(=O)c1cc(C(=O)O)cc([N+](=O)[O-])c1)C(=O)N[C@H](C(=O)N1CC(=O)C[C@H]1C(=O)N[C@H](C(=O)N[C@H](C(N)=O)C1CCCCC1)C1CCCCC1)C(C)(C)C [Compound 4] ({Benzoyl(3-COOH,5-NO2)}-[X1][Tle][Pro(4-oxo)][Chg][Chg]-NH2) | – | – | – | > 75% | – | – | 1.1 | 14 nM | 13 nM | –

Now from value to molecule, other results behind:

Row | Selectivity ([1]; Table 4) | IC50 ([1]; Table 4, read-out: TG2 IC50) | IC50 ([2]; Table 4, read-out: FXIII IC50) | recovery at 2 h [4] | half-life [4] | Structure (SMILES) | increase in clot lysis at 60 minutes compared to control (LI60c) [3] | Selectivity ([1]; isopeptidase assay, Table 3) | IC50 [1, 5] | IC50 [2, 6] | recovery in plasma determined by HPLC [4]
9 | 5.66 | 798 nM | 141 nM | > 75% | – | COC(=O)/C=C/CC[C@H](NC(=O)[C@@H]1CC(=O)CN1)C(=O)N[C@@H](CC1CC1)C(=O)N1CCOC[C@H]1C(=O)N[C@@H](CC(C)C)C(=O)N1CCC[C@H]1C(=O)O [Compound 44] (H-[Pro(4-oxo)][X1][Ala(cPr)][Morpholine(3S-CO)]LP-OH) | 11% | – | – | – | –
10 | – | 196 nM | > 10 nM | – | < 15 min | CCCC[C@H](NC(=O)[C@H](CC/C=C/C(=O)OC)NC(=O)[C@@H]1CC(=O)CN1)C(=O)N[C@H](C(=O)N[C@@H](CC(C)C)C(=O)N1CCC[C@H]1C(=O)O)C(C)CC (stereo partly drawn) [Ref. 16, reference compound] (H-[Pro(4-oxo)][X1][Nle][Ile(3ξ)]LP-OH) | – | – | – | – | –
11 | 0.55 | 169 nM | 306 nM | – | < 15 min | C=CCOC(=O)NCCCC[C@H](NC(=O)[C@H](CC(C)C)NC(=O)[C@H](CC(C)C)NC(=O)[C@@H](NC(=O)[C@H](CC(C)C)NC(=O)[C@@H]1CCCN1C(=O)[C@H](CO)NC(=O)C(NC(=O)[C@H](CCC(N)=O)NC(=O)[C@H](CCC(=O)O)NC(=O)[C@H](CC/C=C/C(=O)OC)NC(=O)[C@H](CC(N)=O)NC(C)=O)C(C)C)C(C)O)C(=O)O (stereo partly drawn) [Ref. 24, reference compound] (Ac-N[X1]EQ[ξV]SPL[Thr(3ξ)]LLK(Alloc)-OH) | – | – | – | – | –
12 | 26.54 | 2920 nM | 110 nM | – | < 15 min | CCCC[C@H](NC(=O)[C@H](CC/C=C/C(=O)OC)NC(=O)[C@@H](CC(=O)O)NC(C)=O)C(=O)N[C@@H](CCCC)C(=O)N[C@@H](CC(C)C)C(=O)N1CCC[C@H]1C(=O)N[C@@H](Cc1c[nH]c2ccccc12)C(=O)N1CCC[C@H]1C(=O)O [Ref. 22, reference compound] (Ac-[dD][X1][Nle][Nle]LPWP-OH) | – | – | – | – | –
13 | 1.82 | 102 nM | 56 nM | – | < 15 min | CCCC[C@H](NC(=O)[C@H](CC/C=C/C(=O)OC)NC(=O)[C@@H]1CC(=O)CN1)C(=O)N[C@H](C(=O)N[C@@H](CC(C)C)C(=O)N1CCC[C@H]1C(=O)N[C@@H](Cc1c[nH]c2ccccc12)C(=O)N1CCC[C@H]1C(=O)O)C(C)CC (stereo partly drawn) [Ref. 23, reference compound] (H-[Pro(4-oxo)][X1][Nle][Ile(3ξ)]LPWP-OH) | – | – | – | – | –
14 | 0.52 | 117 nM | 226 nM | – | < 15 min | CCCC[C@H](NC(=O)[C@H](CC/C=C/C(=O)OC)NC(=O)[C@@H]1CC(=O)CN1)C(=O)N[C@H](C(=O)N[C@@H](CC(C)C)C(=O)N1CCC[C@H]1C(=O)N[C@@H](Cc1c[nH]c2ccccc12)C(=O)O)C(C)CC (stereo partly drawn) [Ref. 15, reference compound] (H-[Pro(4-oxo)][X1][Nle][Ile(3ξ)]LPW-OH) | – | – | – | – | –
15 | 10.47 | 848 nM | 81 nM | > 75% | – | CCOC(=O)/C=C/CC[C@H](NC(=O)c1cc(C(=O)O)cc([N+](=O)[O-])c1)C(=O)N[C@H](C(=O)N1CC(=O)C[C@H]1C(=O)N[C@H](C(=O)NCCC(C)C)C1CCCCC1)C(C)(C)C [Compound 40] ({Benzoyl(3-COOH,5-NO2)}-[Nle(5E-ene,6-CO2Et)][Tle][Pro(4-oxo)][Chg]-NHIsopentyl) | – | – | – | – | –
16 | – | 2150 nM | > 10 nM | – | < 15 min | CCCC[C@H](NC(=O)[C@H](CC/C=C/C(=O)OC)NC(=O)[C@@H](CC(=O)O)NC(C)=O)C(=O)N[C@@H](CCCC)C(=O)N[C@@H](CC(C)C)C(=O)N1CCC[C@H]1C(=O)O [Ref. 14, reference compound] (Ac-[dD][X1][Nle][Nle]LP-OH) | – | – | – | – | –
